Experimental data as given in patent USRE39198E1, “Heteroarylpiperidines, pyrrolidines and piperazines and their use as antipsychotics and analgesics” (Aventis Pharmaceuticals Inc., priority 1989, dated 2006).

system: not given; experiment: not given; details: not given

First: COc1cc(C(C)O)ccc1OCCCCN1CCC(c2noc3ccccc23)CC1 (stereo not shown) [1-[4-[4-[4-(1,2-Benzisoxazol-3-yl)-1-piperidinyl]butoxy]-3-methoxyphenyl]ethanol]
Second: COc1cc(C(C)=O)ccc1OCCCCN1CCC(c2nsc3ccccc23)CC1 [Example 46, 1-[4-[4-[4-(1,2-Benzisothiazol-3-yl)-1-piperidinyl]butoxy]-3-methoxyphenyl]ethanone]
The melting point of the first is higher: 99 to 101 °C for the first, 78 to 80 °C for the second.

First: Cl.O=C1[C@H]2CCCC[C@H]2C(=O)N1CCCN1CCC(c2noc3cc(F)ccc23)CC1
Second: O=C1c2ccccc2C(=O)N1CCCCN1CCC(c2noc3cc(F)ccc23)CC1 [Example 98, N-[4-[4-(6-Fluoro-1,2-benzisoxazol-3-yl)-1-piperidinyl]butyl]phthalimide]
The melting point of the first is higher: 242 to 245 °C for the first, 144 to 146 °C for the second.

Compared with `CC(=O)OC[C@H](C)CN1CCC(c2noc3cc(F)ccc23)CC1.O=C(O)/C=C/C(=O)O`, `CC(=O)OCCCCN1CCC(c2noc3cc(F)ccc23)CC1.O=C(O)/C=C/C(=O)O` is higher in melting point: 118 to 120 °C for the first, 142 to 143 °C for the second.

Compared with `COc1cc(C(C)=O)ccc1OCCCCN1CCN(c2n[nH]c3cc(Cl)ccc23)CC1` [Example 36, 1-[4-[4-[4-(6-Chloro-1H-indazol-3-yl)-1-piperazinyl]butoxy]-3-methoxyphenyl]ethanone], `COc1cc(C(C)=O)ccc1OCCCN1CCN(c2n[nH]c3cc(F)ccc23)CC1` [Example 12, 1-[4-[3-[4-(6-Fluoro-1H-indazol-3-yl)-1-piperazinyl]-propoxy]-3-methoxyphenyl]ethanone] is lower in melting point: 189 to 191 °C for the first, 135 to 137 °C for the second.

Compared with `Fc1ccc2c(C3CCN(CCCCBr)CC3)noc2c1` [Example 114, 4-[4-(6-Fluoro-1,2-benzisoxazol-3-yl)-1-piperidinyl]butyl bromide], `Cl.Cl.NCCCCN1CCC(c2noc3cc(F)ccc23)CC1` is lower in melting point: 243 to 245 °C for the first, 234 to 237 °C for the second.

First: CC(C)(CO)CN1CCC(c2noc3cc(F)ccc23)CC1.O=C(O)/C=C/C(=O)O
Second: Fc1ccc2c(C3CCN(CCC4OCCCO4)CC3)noc2c1.O=C(O)/C=C/C(=O)O
The melting point of the first is lower: 144 to 145 °C for the first, 161 to 162 °C for the second.

First: COc1cc(C(C)=O)ccc1OCCCN1CCC(c2n[nH]c3cc(F)ccc23)CC1 [Example 28, 1-[4-[3-[4-(6-Fluoro-1H-indazol-3-yl)-1-piperidinyl]-propoxy]-3-methoxyphenyl]ethanone]
Second: CC(=O)c1ccc(OCCCN2CCC(c3nsc4cc(F)ccc34)CC2)c(O)c1 [Example 144, 1-[4-[3-[4-(6-Fluoro-1,2-benzisothiazol-3-yl)-1-piperidinyl]propoxy]-3-hydroxyphenyl]ethanone]
The melting point of the first is higher: 202 to 204 °C for the first, 135 to 137 °C for the second.

First: OCCCN1CCC(c2noc3cc(F)ccc23)CC1 [6-Fluoro-3-[1-(3-hydroxypropyl)-4-piperidinyl]-1,2-benzisoxazole]
Second: Fc1ccc2c(C3CCN(CCCOc4ccc5[nH]ccc5c4)CC3)noc2c1 [Example 140, 6-Fluoro-3-[1-[3-[(1H-indol-5-yl)oxy]propyl]-4-piperidinyl]-1,2-benzisoxazole]
The melting point of the first is higher: 140 to 142 °C for the first, 118 to 121 °C for the second.

First: COc1cc(C(C)=O)ccc1OC/C=C\CN1CCC(c2noc3cc(F)ccc23)CC1 [(Z)-1-[4-[[4-[4-(6-Fluoro-1,2-benzisoxazol-3-yl)-1-piperidinyl]-2-butenyl]oxy]-3-methoxyphenyl]ethanone]
Second: CCc1ccc(OCCCN2CCC(c3noc4cc(F)ccc34)CC2)cc1OC.Cl
The melting point of the first is lower: 57 to 59 °C for the first, 150 to 152 °C for the second.

Compound `COC(C)c1ccc(OCCCN2CCC(c3noc4cc(F)ccc34)CC2)c(O)c1` (stereo not shown) [Example 139, 3-[1-[3-[4-(1-Methoxyethyl)-2-hydroxyphenoxyl]propyl]-4-piperidinyl]-6-fluoro-1,2-benzisoxazole] has a melting point of 98 to 100 °C.

system: CK-1 male mice; experiment: Climbing mouse assay (apomorphine-induced climbing); assay type: in vivo; details: Mus musculus; ip; apomorphine 1.5 mg/kg sc challenge; climbing score vs control group set to 100%; linear regression
Procedure: Antipsychotic activity is determined in the climbing mice assay by a method similar to those described by P. Protais, et al., Psychopharmacol., 50:1 (1976) and B. Costall, Eur. J. Pharmacol., 50:39 (1978).
Subject […] male mice (23-27 grams) are group-housed under standard laboratory conditions. The mice are individually placed in wire mesh stick cages (4″×10″) and are allowed one hour for adaption and exploration of the new environment. Then apomorphine is injected subcutaneously at 1.5 mg/kg a dose causing climbing in all subjects for 30 minutes.
For evaluation of climbing, 3 readings are taken at 10. 20, and 30 minutes after apomorphine administration according to the following scale:
Mice consistently climbing before the injection of apomorphine are discarded.
With full-developed apomorphine climbing, the animals are hanging on to the cage walls, rather motionless, over long periods of time. By contrast, climbs due to mere motor stimulation usually only last a few seconds.
The climbing scores are individually totaled (maximal score: 6 per mouse over 3readings) and the total score of the control group (vehicle intraperitoneally-apomorphine subcutaneously) is set to 100%.

`COc1cc(C(C)O)ccc1OCCCCN1CCC(c2noc3ccccc23)CC1` (stereo not shown) [1-[4-[4-[4-(1,2-Benzisoxazol-3-yl)-1-piperidinyl]butoxy]-3-methoxyphenyl]ethanol] showed an ED50 of 1.6 mg/kg.

same assay, conditions: apomorphine 1.5 mg/kg sc challenge, climbing score vs control group set to 100%, linear regression

In order of rising “CLIMBING MOUSE ASSAY (ED50 mg/kg, ip)” value:
1. COc1cc(C(C)=O)ccc1OCCCN1CCC(c2noc3cc(F)ccc23)CC1 [1-[4-[3-[4-(6-Fluoro-1,2-benzisoxazol-3-yl)-1-piperadinyl]propoxy]-3-methoxyphenyl]ethanone]  0.095 mg/kg
2. 6-Fluoro-3-[1-[3-[(isoquinol-5-yl)oxy]propyl]-4-piperidinyl]-1,2-benzisoxazole sesquifumarate  0.172 mg/kg
3. Fc1ccc2c(C3CCN(CCC4COc5ccccc5O4)CC3)noc2c1 (stereo not shown) [2-[4-(6-Fluoro-1,2-benzisoxazol-3-yl)-1-piperidinyl]ethyl]-1,4-benzodioxan]  0.29 mg/kg
4. CC(=O)c1ccc(CCCCN2CCC(c3noc4cc(F)ccc34)CC2)cc1 [1-[4-(4′-Acetophenyl)butyl]-4-(6-fluoro-1,2-benzisoxazol-3-yl)piperidine]  0.34 mg/kg
5. COc1cc(C(C)=O)ccc1OCCCN1CCC(c2noc3ccccc23)CC1 [1-[4-[3-[4-(1,2-Benzisoxazol-3-yl)-1-piperadinyl]propoxyl]-3-methoxyphenyl]ethanone]  0.67 mg/kg
6. COc1cc(C(C)=O)ccc1OCCCCN1CCC(c2noc3cc(F)ccc23)CC1 [1-[4-[4-[4-(6-Fluoro-1,2-benzisoxazol-3-yl)-1-piperidinyl)butoxy]-3-methoxyohenylethanone]  0.68 mg/kg

system: mice; experiment: Phenyl p-quinone writhing assay in mice; assay type: in vivo; details: dose effecting approximately 50% inhibition of writhing in mice
Description: Some of the compounds of the present invention are also useful as analgetics due so their ability to alleviate pain in mammals. […] Exptl. Biol. Med., 95:729 (1937). Thus, for instance the subcutaneous dose effecting an approximately 50% inhibition of writhing (ED50) in mice produced in this assay is as shown in Table 2.

In order of falling “INHIBITION OF PHENYLQUINONE INDUCED WRITHING ED50 mg/kg, sc” value:
1. COc1cc(C(C)=O)ccc1OCCCN1CCC(c2noc3ccccc23)CC1 [1-[4-[3-[4-(1,2-Benzisoxazol-3-yl)-1-piperadinyl]propoxyl]-3-methoxyphenyl]ethanone]  0.17 mg/kg
2. COc1cc(C(C)=O)ccc1OCCCN1CCC(c2noc3cc(F)ccc23)CC1 [1-[4-[3-[4-(6-Fluoro-1,2-benzisoxazol-3-yl)-1-piperadinyl]propoxy]-3-methoxyphenyl]ethanone]  0.03 mg/kg
